Results: publication PMC3499368, “Evolution of Minimal Specificity and Promiscuity in Steroid Hormone Receptors” (PLoS Genetics, 2012)
Read-outs that look alike come from different tables or passages of the source.

What was measured:
Format in all cases: cell-based
[1] = tested on: AncSR1-LBD; assay: luciferase reporter gene assay, Gal4-DBD fusion of AncSR1-LBD in CHO-K1 cells, activation; details: for EC50: AncSR1, representative dose activation curves (Fig. S3) and Table S5 section b
Excerpt: (§1) To experimentally test these hypotheses, we synthesized cDNAs for the AncSR1 and AncSR2 LBD protein sequences, expressed them as Gal4-DBD fusion constructs, and characterized their sensitivity to hormones using luciferase reporter gene assays.

[2] = tested on: AncSR1_Alt2; assay: luciferase reporter assay, alternative reconstruction AncSR1_Alt2; details: Alt2, fold activation at 10^-6 M, Fig. S5C
Excerpt: (§2) To determine the robustness of functional inferences to statistical uncertainty in the reconstruction of AncSR1 and AncSR2, we used two approaches. AncSR1 had too many ambiguously reconstructed sites to examine each such residue individually, so we computationally sampled from the posterior probability distribution of reconstructed amino acid states to generate a cloud of possible ancestral sequences, each harboring a large number of alternate states. Specifically, we generated 1,000,000 possible ancestral sequences by sampling from the posterior probability distribution of states at each site. […] We synthesized these five radically alternative ancestral reconstructions de novo and repeated the functional assays.
(§3) A) Distribution of posterior probabilities of 1 million protein sequences assembled by sampling amino acid states at each site from the posterior probability distribution for AncSR1 LBD. The ML reconstruction (AncSR1-ML) and the five alternative sequences with the highest posterior probability (Alt1-Alt5) in the 1 million samples are […]
(§4) The column height and error bars indicate the mean and SEM of three independent experiments, respectively. […]

[3] = tested on: AncSR1_Alt5; assay: luciferase reporter assay, alternative reconstruction AncSR1_Alt5; details: Alt5, fold activation at 10^-6 M, Fig. S5C
Excerpt: as §2, §3, §4

[4] = tested on: AncSR1_Alt3; assay: luciferase reporter assay, alternative reconstruction AncSR1_Alt3; details: Alt3, fold activation at 10^-6 M, Fig. S5C
Excerpt: as §2, §3, §4

[5] = tested on: AncSR1_Alt1; assay: luciferase reporter assay, alternative reconstruction AncSR1_Alt1; details: Alt1, fold activation at 10^-6 M, Fig. S5C
Excerpt: as §2, §3, §4

[6] = tested on: AncSR2-LBD; assay: luciferase reporter gene assay, Gal4-DBD fusion of AncSR2-LBD in CHO-K1 cells, activation; details: for Ratio H1/H2 of EC50, preference for 21-OH group vs. H group / Ratio H2/H1 of EC50, preference for 21-OH group vs. H group: AncSR2, Table S5 section f, pairs H1/H2: 1/6, 2/7; for Ratio H1/H2 of EC50, preference for 21-OH group vs. H group / Ratio H2/H1 of EC50, preference for 21-OH group vs. H group / Ratio H1/H2 of EC50, preference for 11-OH vs. H group / Ratio H2/H1 of EC50, preference for 11-OH vs. H group / Ratio H1/H2 of EC50, preference for 17-acetyl vs. 17-hydroxy group / Ratio H2/H1 of EC50, preference for 17-acetyl vs. 17-hydroxy group / Ratio H1/H2 of EC50, preference for 3-hydroxy vs. 3-keto group / Ratio H2/H1 of EC50, preference for 3-hydroxy vs. 3-keto group / Ratio H1/H2 of EC50, preference for 19-H vs. 19-methyl group / Ratio H2/H1 of EC50, preference for 19-H vs. 19-methyl group: listed as given under Hormone 1; for Ratio H1/H2 of EC50, preference for 11-OH vs. H group / Ratio H2/H1 of EC50, preference for 11-OH vs. H group: AncSR2, Table S5 section g, pairs H1/H2: 1/3, 2/4; for EC50: AncSR2, representative dose activation curves (Fig. S4) and Table S5 sections c-i; for Ratio H1/H2 of EC50, preference for 17-acetyl vs. 17-hydroxy group / Ratio H2/H1 of EC50, preference for 17-acetyl vs. 17-hydroxy group: AncSR2, Table S5 section d, pairs H1/H2: 13/6, 17/8, 15/9, 16/10, 19/23; for Ratio H1/H2 of EC50, preference for 3-hydroxy vs. 3-keto group / Ratio H2/H1 of EC50, preference for 3-hydroxy vs. 3-keto group: AncSR2, Table S5 section e, pairs H1/H2: 18/17, 9/6, 15/13; for Ratio H1/H2 of EC50, preference for 19-H vs. 19-methyl group / Ratio H2/H1 of EC50, preference for 19-H vs. 19-methyl group: AncSR2, Table S5 section i, pairs H1/H2: 8/6, 17/13, 18/15
Excerpt: as §1, with “assays. […] It was unresponsive to a broad array of androgens, progestagens, and corticosteroids, as well as cholesterol (Figure 2A, Figure S3).” for “assays.”
For AncSR2, we identified all plausible alternate reconstructions (those with posterior probability >0.20 excluding biochemically similar K/R, D/E, S/T, and I/L differences) and introduced each alternate state individually into the AncSR2 background using the Quikchange Mutagenesis kit (Stratagene), verified clones by sequencing, and repeated the activation assays with each version of AncSR2 (Figure S6). The ML AncSR2 sequence reconstructed on the ML tree had high baseline activation in the absence of ligand; this phenotype is almost certainly an artifact, because constitutive baseline activity is not present in any of AncSR2's extant descendants; it is well-established that some amino acid replacements can cause nuclear receptors to become constitutive by marginally stabilizing the active conformation in the absence of hormone. […] The “constitutive” Leu79 state is weakly supported on the ML tree (PP = 0.59), and has no support (PP = 0.00) on the phylogeny that is most parsimonious in terms of gene duplications and losses; in contrast, the “non-constitutive” state Met79 has PP = 0.41 on the ML tree and PP = 1.00 on the rearranged gene duplication/loss tree (Figure S12, Table S8). The AncSR2 sequence used for all experiments reported in the text therefore contains state Met79. The other alternate reconstructions were then reintroduced into this AncSR2 sequence: none qualitatively changed the receptor's sensitivity to the various classes of steroid hormones, except for A171V, which conferred constitutive activity (Figure S6).

[7] = tested on: AncSR1_Alt4; assay: luciferase reporter assay, alternative reconstruction AncSR1_Alt4; details: Alt4, fold activation at 10^-6 M, Fig. S5C
Excerpt: as §2, §3, §4

[8] = AncSR1, Table S5 section b, pairs H1/H2: 18/19, 22/20, 8/23, listed as given under Hormone 1

## 11-deoxycorticosterone
[1]; AncSR1-ML, fold activation at 10^-6 M, Fig. S5C
  activation (in words): none are activated
[2]
  activation (in words): none are activated
[3]
  activation (in words): none are activated
[4]
  activation (in words): none are activated
[5]
  activation (in words): none are activated
[6]; AncSR2, 11-deoxycorticosterone concentration used in inhibition assay
  EC80: 0.0017 µM
[6]
  Ratio H1/H2 of EC50, preference for 21-OH group vs. H group: 0.08
  Ratio H2/H1 of EC50, preference for 21-OH group vs. H group: 13.10
  Ratio H1/H2 of EC50, preference for 11-OH vs. H group: 1.35
  Ratio H2/H1 of EC50, preference for 11-OH vs. H group: 0.74
[6]; read-out: EC50
  EC50: 0.00042 µM
[7]
  activation (in words): none are activated

## C[C@]12CC[C@H]3[C@@H](CCC4=C[C@@H](O)CC[C@@]43C)[C@@H]1CC[C@@H]2O [4-androstenediol]
[6]
  Ratio H1/H2 of EC50, preference for 17-acetyl vs. 17-hydroxy group: 119.09
  Ratio H2/H1 of EC50, preference for 17-acetyl vs. 17-hydroxy group: 0.01
  Ratio H1/H2 of EC50, preference for 3-hydroxy vs. 3-keto group: 2.26
  Ratio H2/H1 of EC50, preference for 3-hydroxy vs. 3-keto group: 0.44
  EC50: 0.262 µM

## C[C@]12CCC(=O)C=C1CC[C@@H]1[C@@H]2CC[C@]2(C)C(=O)CC[C@@H]12 [4-androstenedione]
[1]; [8]
  Ratio H1/H2 of EC50, preference for aromatized A-ring: 144.93
  Ratio H2/H1 of EC50, preference for aromatized A-ring: 0.01
[1]
  EC50: > 10 µM
[6]
  EC50: 0.411 µM

## CC(=O)C1CCC2C3CCC4=CC(O)CCC4(C)C3CCC12C (stereo not drawn) [4-pregnenolone]
[6]
  Ratio H1/H2 of EC50, preference for 3-hydroxy vs. 3-keto group: 0.40
  Ratio H2/H1 of EC50, preference for 3-hydroxy vs. 3-keto group: 2.50
  EC50: 0.0022 µM

## C[C@]12CC[C@H]3[C@@H](CC=C4C[C@@H](O)CC[C@@]43C)[C@@H]1CC[C@@H]2O [5-androstenediol]
[6]
  Ratio H1/H2 of EC50, preference for 17-acetyl vs. 17-hydroxy group: 21.84
  Ratio H2/H1 of EC50, preference for 17-acetyl vs. 17-hydroxy group: 0.05
  EC50: 0.083 µM

## CC(=O)C1CCC2C3CC=C4CC(O)CCC4(C)C3CCC12C (stereo not drawn) [5-pregnenolone]
[6]; read-out: EC50
  EC50: 0.0038 µM

## C[C@]12CCC(=O)C=C1CC[C@@H]1[C@@H]2CC[C@@]2(C)[C@H]1CC[C@]2(O)C(=O)CO [11-deoxycortisol]
[6]
  Ratio H1/H2 of EC50, preference for 21-OH group vs. H group: 0.08
  Ratio H2/H1 of EC50, preference for 21-OH group vs. H group: 12.67
  Ratio H1/H2 of EC50, preference for 11-OH vs. H group: 0.15
  Ratio H2/H1 of EC50, preference for 11-OH vs. H group: 6.53
[6]; read-out: EC50
  EC50: 0.0015 µM

## CC(=O)[C@@]1(O)CC[C@H]2[C@@H]3CCC4=CC(=O)CC[C@]4(C)[C@H]3CC[C@@]21C [17α-hydroxyprogesterone]
[6]; read-out: EC50
  EC50: 0.019 µM

## CC(=O)C1CCC2C3CCC4=CC(=O)CCC4C3CCC12C (stereo not drawn) [19-norprogesterone]
[1]; [8]
  Ratio H2/H1 of EC50, preference for aromatized A-ring: 0.02
[1]
  EC50: > 10 µM
[6]
  Ratio H1/H2 of EC50, preference for 19-H vs. 19-methyl group: 0.29
  Ratio H2/H1 of EC50, preference for 19-H vs. 19-methyl group: 3.44
  EC50: 0.0016 µM

## CC12CCC3C4CCC(=O)C=C4CCC3C1CCC2O (stereo not drawn) [19-nortestosterone]
[6]
  Ratio H1/H2 of EC50, preference for 17-acetyl vs. 17-hydroxy group: 43.13
  Ratio H2/H1 of EC50, preference for 17-acetyl vs. 17-hydroxy group: 0.02
  Ratio H1/H2 of EC50, preference for 19-H vs. 19-methyl group: 0.59
  Ratio H2/H1 of EC50, preference for 19-H vs. 19-methyl group: 1.68
  EC50: 0.069 µM

## C[C@H](O)[C@H]1CC[C@H]2[C@@H]3CCC4=CC(=O)CC[C@]4(C)[C@H]3CC[C@]12C [20α hydroxyprogesterone]
[6]; read-out: EC50
  EC50: 0.019 µM
